Peptide text beside a SMILES is read from it. * marks the point of attachment. Cbz = O=C(OCc1ccccc1)*
Legend:
[1] = tested on: polarized human bronchial epithelial cells; format: cell-based; settings: for augmentation in transgene expression: applied to the serosal surface along with rAAV, 2 days post infection, LLnL 40 μM
Method: Primary culture of human bronchial epithelia and reagents utilized. Primary human airway epithelial cells were collected by enzymatic digestion of bronchial samples from lung transplants, as previously described (Kondo et al., 1991; Zabner et al., 1996). Isolated primary airway cells were seeded at a density of 5×10^5 cells/cm^2 onto collagen-coated Millicell-HA culture inserts (Millipore Corp., Bedford, Mass.). Primary cultures were grown at the air-liquid interface for more than 2 weeks, by which time differentiation into a mucociliary epithelium occurs. The culture medium, used to feed only the basolateral side of the cells, contained 49% DMEM, 49% Ham's F12 and 2% Ultraser G (BioSepra, Cedex, France). Dimethyl Sulphoxide (DMSO), camptothecin (Camp), etoposide (Etop), aphidicolin (Aphi), hydroxyurea (HU) and genistein (Geni) were purchased from Sigma (St. Louis, Mo.). Tripeptidyl aldehyde proteasome inhibitors N-Acetyl-L-Leucyl-L-Leucyl-Norleucine (LLnL) and benzyloxycarbonyl-L-leucyl-L-leucyl-L-leucinal (Z-LLL) were purchased from Calbiochem-Novabiochem Corporation (La Jolla, Calif.). Ubiquitin ligase (E3) inhibitors were obtained from Bachem Bioscience Inc. (King of Prussia, Pa.). Anti-AAV capsid monoclonal antibody (Anti-VP1, 2 and 3) was purchased from American Research Products (Belmont, Mass.) and anti-ubiquitin antibody was purchased from Santa Cruz Biotechnology Inc. (Santa Cruz, Calif.).
Transduction of polarized airway epithelial cells and primary human fibroblasts. rAAV infection of fully differentiated bronchial cells was performed as described in Duan et al. (1998). For infections from the apical surface of the airway cells, 5 μl rAAV was mixed with 50 μl of culture media and applied directly onto the apical compartment of Millicell inserts (MOI=10,000 particles/cell). During apical infection, the basolateral side of the Millicell was continuously bathed in culture media. Gene transfer to the basal side was performed by inverting Millicell inserts and applying viral vector to the bottom of the supporting filter membrane in a 50 μl volume for 2 hours. Subsequently, Millicell inserts were returned to the upright position, in the continued presence of the original viral inoculum plus an additional 450 μl of media. For both apical and basolateral infections, rAAV containing media was removed after 24 hours and replaced with either fresh culture media (for the basal side) or exposed to air (for the apical side). To test the effect of different agents on the efficiency of AAV transduction in polarized airway cells, 1 μl of each solution was mixed with AAV prior to infection of airway epithelia. Agents were usually presented during the 24 hours AAV infection period unless indicated otherwise. Most of the agents were dissolved in DMSO except for hydroxyurea (dissolved in phosphate buffered saline), H-Leu-Ala-OH (dissolved in 0.9% glacial acetic acid) and H-His-Ala-OH (dissolved in 50% methanol). The working concentrations of the agents were as follows: 0.1 μM camptothecin, 10 μM etoposide, 5 μg/ml aphidicolin, 40 mM hydroxyurea, 50 μM genistein, 40 μM LLnL and 4 μM Z-LLL. When the ubiquitin ligase (E3) inhibitors (H-Leu-Ala-OH and H-His-Ala-OH) were used, airway cells were pretreated with a combination of both inhibitors at a final concentration of 2 mM for 60 minutes prior to infection, followed by the continued presence of inhibitor (0.2 mM) during the entire 24 hours infection period from the basolateral surface. Studies involving EGTA treatment were performed by transiently treating the apical membrane of polarized airway epithelia with 3 mM EGTA in water for 10 minutes (Duan et al., 1998). Following hypotonic EGTA treatment, cultures were washed twice with culture medium and infected with rAAV in the presence or absence of 40 μM LLnL. Human primary fibroblast cells (P4) were maintained in 10% fetal bovine serum (FBS), 1% penicillin and streptomycin, and 89% DMEM. […]

[2] = Toxicity of proteasome inhibitors in mice; format: in vivo, mouse; settings: 10, 100, and 1000 fold higher effective doses; intra-tracheal and systemic (IV) delivery
Method: Long-term enhancement of rAAV transduction by proteasome inhibitor in vivo. To evaluate the potential utility of proteasome inhibitors for in vivo gene therapy, both the toxicity and efficacy of these agents for in vivo rAAV mediated gene transfer in the mouse lung was tested. To assess the toxicity of these proteasome inhibitors in mice, 10, 100, and 1000 fold higher effective doses of LLnL or Z-LLL were administered than used to induce gene transfer in polarized airway cells, using both intra-tracheal and systemic (IV) delivery. No toxicity was indicated by histologic evaluation of the lung and liver or was evidenced by the death of animals. To investigate whether these proteasome inhibitors could improve rAAV transduction in vivo, AV.LacZ (5×10^10 particles) was delivered either alone or in the presence of 400 μM Z-LLL by intranasal administration. Mouse lungs were harvested at 3, 10 and 150 days post-infection to evaluate short and long term effects. […] Targeted transgene expression was predominantly confined to the conducting airways, rather than in the parenchyma. Alveolar cells were rarely transduced. […] The range of transgene expression in distal and proximal airways was 0 to 4% and 5 to 18%, respectively.

[3] = tested on: HeLa cells; test: Luciferase rAAV transduction of HeLa cells with LLnL / doxorubicin; format: cell-based
Method: (§1) C. To determine whether combinations of agents that enhance rAAV transduction efficiency have synergistic or additive effects when used in combination, cells were contacted with the proteosome modulator, doxorubicin, and the proteosome inhibitor Z-LLL or LLnL. Different AAV vectors were tested, including splicing vectors and pseudotyped rAAV. Viral stocks utilized were as follows: Av2RSVluc, 5×10^8 particle/μl; Av2RSVlucCap5 (also referred to as Av2/5 CMVLuc), 2×10^9 particle/μl; Av2CMVluc, 1.3×10^9 particle/μl; and Av2CMVlucCap5, 1.1×10^9 particle/μl. Combinations of agents were compared to the agents used alone to determine the efficiency of transduction. LLnL was used at 40, 200 or 400 μM, Z-LLL at 4 μM and doxorubicin at 0.5 or 1 μM when employed alone. When a combination of LLnL and doxorubicin was used, LLnL was used at 4, 10, 20, 40, 200 or 400 μM and doxorubicin at 1 or 5 μM. The apical surface of polarized airway epithelia, HeLa cells or ferret fibroblast was contacted with the agents and rAAV (5×10^9 particles per well).

[4] = tested on: ferret fibroblast; test: rAAV transduction of ferret fibroblasts with LLnL / doxorubicin; format: cell-based; settings: ferret fibroblast
Method: as §1

[5] = tested on: A549 cells; test: AV2Luc / AV2/5Luc transduction of A549 cells with LLnL / doxorubicin; format: cell-based, human
[6] = tested on: polarized human airway epithelia; test: Luciferase rAAV2 / rAAV5-capsid transduction of polarized human airway epithelia; format: cell-based
[7] = tested on: IB3 cells; test: AV2Luc / AV2/5Luc transduction and nuclear uptake in IB3 cells; format: cell-based, human; settings: rAAV2-infected IB3 cells; 40 μM LLnL or 1 μM Dox; 24 hours
Method: LLnL and Z-LLL are two tripeptidyl aldehydes shown to inhibit calpains, cathepsins, cysteine proteases as well as the chymotrypsin-like protease activity of proteasomes (Wagner et al., 2002; Donkor, 2000; Sasaki et al., 1990). […] Both classes of proteasome inhibitors bind tightly to the proteasome complex. Dose response curves for these two proteasome-modulating agents were evaluated on IB3, A549, Hela, and primary fibroblasts. The responses were consistent for a number of cell lines and for three different promoters driving luciferase expression. For one set, CMV-driven luciferase constructs with an AAV2-based genome were employed that were packaged into AV2 or AV5 capsids. Cells were infected at various doses of AV2Luc and AV2/5Luc (MOIs 100 to 1000 particles/cell). At the time of infection, cells were treated with various concentrations of LLnL or Doxorubicin and gene expression was assayed at 24 hours post-infection. The effect of proteasome inhibitors on nuclear uptake of virus was evaluated using a previously-described protocol for fractionating viral DNA in the cytoplasm and nucleus (Xiao et al., 2002). Viral DNA content in the cytoplasmic and nuclear fractions was then evaluated by slot blot hybridization against a Luciferase DNA probe.

[8] = tested on: primary fetal fibroblasts; test: rAAV transduction of primary fetal fibroblasts with LLnL, Dox or both; format: cell-based; settings: LLnL by itself
Method: Hela, A549, IB3, and primary fetal fibroblasts were evaluated for AV2Luc and AV2/5Luc transduction in the presence of LLnL, Dox, or LLnL+Dox at various concentrations. The data shown is from Hela and A549 cells at the most optimal dose combination that induces rAV2Luc transduction to a greater extent than each compound alone.

[9] = tested on: HeLa cells; test: AV2eGFP versus scAV2eGFP expression in Hela cells with hydroxyurea; format: cell-based; settings: 5 mM pretreatment; 24 hours post-infection
Method: A set of viral vectors was prepared of half-genome length was prepared. Four GFP-based viruses were generated for this analysis (AV2eGFP, scAV2eGFP, AV2/5eGFP, and scAV2/5eGFP that had either 4.7 kb or 2.4 kb length genomes packaged into AAV2 or AAV5 capsids. The data AAV2 capsid viruses were identical to data for rAAV5 viruses. Functional confirmation of scAAV/dsAAV structure was performed by analysis of gene conversion and gene expression rates in Hela cells, sensitivity of transduction in Hela cells to the DNA synthesis inhibitor hydroxyurea (HU), and by denaturing NaHO gel electrophoresis. Polarized airway epithelia were infected with the various vector constructs from the apical membrane in the presence and absence of applied LLnL at the time of infection. Gene expression was monitored by quantitative morphometry of GFP fluorescence at various post-infection time points.

[10] = tested on: mouse lung airway epithelium; test: AV.LacZ gene transfer to mouse lung with Z-LLL (nasal aspiration, X-gal morphometry); format: in vivo; settings: 400 μM Z-LLL; 3 and 10 days post infection
Method: In vivo studies in mice. Animal studies were performed in accordance with the institutional guidelines of the University of Iowa. To determine the effect of the proteasome inhibitor on AAV mediated gene transfer in mouse lung, 6 week-old BALB/c mice were lightly anesthetized using a methoxyflurane chamber. AV.LacZ (5×10^10 particles) was administered alone or with 400 μM Z-LLL in a 10 μl instillation by nasal aspiration as described by Walters et al. (2000). To prevent unforeseen toxicity of DMSO solvent, the proteasome inhibitor Z-LLL was dissolved in ethanol as a 40 mM stock solution and was included in the viral inoculum at 1% final concentration. Viral infection controls in the absence of Z-LLL also contained a 1% final concentration of ethanol. […] Lungs (N=3 for each condition) were embedded in OCT (optimal cutting temperature; Baxter, Warrendale, Pa.) and 15 μm serially sections were analyzed for gene transfer by calculating the percentage of positive cells in the airway epithelium. The diameter of the airway was recorded for classification (>360 μm, 260-350 μm, 160-250 μm, <150 μm) of results following morphometric analysis. Greater than 150 airway cross-sections were quantified for each experimental condition.

[11] = tested on: mouse lung; test: AV2Luc / AV2/5Luc gene transfer to BL6 mouse lung with Z-LLL and/or Dox; format: in vivo; settings: 200 μM

Molecule: N-acetyl-L-leucinyl-L-leucinal-L-norleucinal [LLnL]
- time of peak of augmentation in AAV transduction, mucosal co-administration ([1]; LLnL and rAAV to the mucosal surface): 22 days
- augmentation in transgene expression [1]: greater than 200 fold
- toxicity to cells on continual administration ([1]; continual administration, transgene expression ablated by 10 days): toxic to cells
- time of transient peak in gene expression, serosal infection ([1]; rAAV from the serosal surface in the presence of LLnL): 72 h
- toxicity (histologic evaluation of lung and liver, death of animals) [2]: No toxicity
- concentration at which transduction is enhanced [3]: 40 µM
- concentration at which transduction is enhanced [4]: 40 µM
- concentration at which transduction is enhanced [5]: 200 to 400 µM
- enhancement of transduction from the apical surface ([6]; LLnL 40 μM and/or Dox 5 μM at the time of infection): 10 fold
- polarity of enhancement of AV2Luc and AV2/5Luc transduction ([6]; LLnL 40 μM, 5 and 14 days): only apical transduction for both AAV serotypes was enhanced
- effect on AV2.RSVluc transduction ([6]; apical and basolateral infection): augments AV2.RSVluc transduction from the apical and basolateral surfaces
- concentration at which transduction is enhanced ([6]; polarized airway epithelial cells): 40 µM
- increase of AV2.RSVlucCap5 transduction ([6]; virus applied to the apical surface): 12 fold
- fraction of viral DNA in the nuclear compartment [7]: significantly increased the fraction of viral DNA in the nuclear compartment
- induction of transduction [8]: 10 fold

Molecule: NC(=O)NO [hydroxyurea]
- rAAV transduction from the apical surface ([1]; apical infection, data not shown): none of these agents facilitated rAAV transduction from the apical surface
- effect on gene expression from AV2eGFP and scAV2eGFP [9]: significantly decreased gene expression from AV2eGFP but not scAV2eGFP virus

Molecule: CC(C)C[C@@H](C=O)NC(=O)[C@H](CC(C)C)NC(=O)[C@H](CC(C)C)NC(=O)OCc1ccccc1 [Z-LLL, N-carbobenzoxyl-L-leucinyl-L-leucinyl-L-leucinal] (Cbz-Leu-Leu-Leu-aldehyde)
- augmentation in transgene expression [1]: A similar result was achieved
- toxicity (histologic evaluation of lung and liver, death of animals) [2]: No toxicity
- transgene expression (X-gal staining of lung) [10]: no detectable transgene expression
- induction of transgene expression from AV2/5 vectors [11]: 10 fold
